Molecules are shown by their SMILES. Activity calls are given as the source filed them. No cut-off for these calls is given here.

This is an account of results in ChEMBL document CHEMBL5352449, “Exploration and biological evaluation of 7-methoxy-3-methyl-1H-chromeno[4,3-c]pyrazol-4-one as an activating transcription factor 3 inducer for managing metabolic syndrome” (Eur J Med Chem, 2023).

Series [1] can be described thus: Induction of AFT3 gene expression in mouse 3T3-L1 cells assessed as relative gene expression level at 50 uM incubated for 8 days by real time-PCR analysis (reference value: 1.00). The class given is functional. The conditions noted are these: time 8 day.
Series [2] is described as follows: (§1) Cytotoxicity against mouse 3T3-L1 adipocytes assessed as reduction in cell viability. The class given is toxicity, cell-based. The conditions noted are these: 3T3-L1 adipocytes.
Series [3] deals with 3T3-L1. The experiment in a line: Induction of AFT3 expression in mouse 3T3-L1 cells at 50 to 100 uM incubated for 6 days by Western blot analysis. The class given is functional, cell-based. The conditions noted are these: dose 50-100 µM, time 6.0 day. On the technique in general: Immunoblotting shows a protein as a band on a membrane.
The test system of series [4] is 3T3-L1. The experiment in a line: Downregulation of lipid accumulation in mouse 3T3-L1 pre-adipocyte model at 50 to 100 uM incubated for […] by Oil Red O staining based analysis. The conditions noted are these: dose 50-100 µM. The class given is functional, cell-based.
A short description of series [5]: Inhibition of high fat diet induced metabolic disturbance in C57BL/6 mouse model assessed as reduction in body weight at 40 mg/kg, ip administered 3 times weekly for 10 weeks (reference value: 34.86 +/-[…]). The class given is functional.
Series [6] concerns Mus musculus. Description: Inhibition of high fat diet induced metabolic disturbance in C57BL/6 mouse model assessed as reduction in epididymal white adipose tissue weight at 40 mg/kg, ip. The class given is functional, organism-based.
Series [7] has as its system Mus musculus. Description: Inhibition of high fat diet induced metabolic disturbance in C57BL/6 mouse model assessed as reduction in inguinal white adipose tissue weight at 40 mg/kg, ip. The class given is functional, organism-based.
For series [8], the system named is Mus musculus. Description: Inhibition of high fat diet induced metabolic disturbance in C57BL/6 mouse model assessed as reduction in […] adipose tissue weight at 40 mg/kg, ip. Format: functional, organism-based.
For series [9], the species on record is Mus musculus. Description: Inhibition of high fat diet induced metabolic disturbance in C57BL/6 mouse model assessed as reduction in hypertrophic eWAT adipocytes by H and E staining based analysis. Format: functional, cell-based.
Series [10] concerns Mus musculus. The experiment in a line: Inhibition of high fat diet induced metabolic disturbance in C57BL/6 mouse model assessed as reduction in size of epididymal white adipose tissue at 40 mg/kg, ip. The class given is functional, organism-based.
For series [11], the species on record is Mus musculus. Description: Inhibition of high fat diet induced metabolic disturbance in C57BL/6 mouse model assessed as reduction in hypertrophic iWAT adipocytes by H and E staining based analysis. The class given is functional, cell-based.
The species named for series [12] is Mus musculus. Description: Anti-hyperglycemic activity in 16 hrs overnight fasted high fat diet induced C57BL/6 mouse assessed as reduction in glucose intolerance measured at upto 120 mins. Format: functional, organism-based.
The species named for series [13] is Mus musculus. Description: Anti-hyperglycemic activity in 16 hrs overnight fasted high fat diet induced C57BL/6 mouse assessed as reduction in insulin resistance measured at upto 120 mins. Format: functional, organism-based.
Series [14] relates to Mus musculus. The experiment in a line: Hepatoprotective activity in high fat diet induced C57BL/6 mouse assessed as reduction in GOT level at 40 mg/kg administered thrice weekly. Format: functional, organism-based.
For series [15], the system named is Mus musculus. Description: Hepatoprotective activity in high fat diet induced C57BL/6 mouse assessed as reduction in GPT level at 40 mg/kg administered thrice weekly. The class given is functional, organism-based.
Series [16] has as its system Mus musculus. Description: Reduction in hepatic steatosis in high fat diet induced metabolic disturbance in C57BL/6 mouse model at 40 mg/kg, ip by hematoxylin and eosin staining based assay. The class given is functional, organism-based.
The test system of series [17] is Mus musculus. The experiment in a line: Protection against hyperlipidemia in high fat diet-fed C57BL/6 mouse model assessed as reduction in total plasma cholesterol level at 40 mg/kg administered thrice weekly. The class given is functional, organism-based.
Series [18] concerns Mus musculus. The experiment in a line: Protection against hyperlipidemia in high fat diet-fed C57BL/6 mouse model assessed as reduction in hypo-triglyceridemic level at 40 mg/kg administered thrice weekly. The class given is functional, organism-based.
Series [19] relates to 3T3-L1. Described as §1. The conditions noted are these: 3t3-l1. The class given is toxicity, cell-based.

In the case of `O=c1oc2cc(O)ccc2c2occ(C(F)(F)F)c12`, in series [1], the Activity is on record as 1.4.
For the compound `Cc1coc2c1c(=O)oc1c3ccccc3ccc21`, the Activity in series [1] stood at 1.94.
Same read-out and setting: as for `Cc1ccc2c(c1)oc(=O)c1c(C)n[nH]c12`, the figure is 1.38; as for `COc1ccc2c(c1)oc(=O)c1c(C(F)(F)F)coc12`, 2.8.
The same measure, in the same setting: as for `Cc1[nH]nc(-c2ccc3ccccc3c2O)c1C(=O)O`, the figure is 1.2.
On to `COc1cccc2c1oc(=O)c1c(C)n[nH]c12`, for which the Activity in series [1] is recorded as 4.78. Besides, the CC50 in [2] was greater than 100 µM. Besides, the result in the series on 3T3-L1 [3] and in the series with 3T3-L1 [4] was Active.
Regarding `O=c1oc2cc(OCc3ccncc3)ccc2c2occ(C(F)(F)F)c12`, the Activity in series [1] turned out to be 1.23.
Same read-out and setting: as for `O=C(O)c1coc2c1c(=O)oc1c3ccccc3ccc21`, the figure is 1.06; as for `COc1cccc2c1oc(=O)c1c(C(F)(F)F)n[nH]c12`, 1.81; as for `CC1(C)Oc2c(c(=O)oc3c2ccc2ccccc23)C1(C)C`, 3.22.
On the same count and under the same terms, the result for `COc1ccc2c(c1)oc(=O)c1c(C3CC3)coc12` reads 1.96; that for `Cc1n[nH]c2c1c(=O)oc1cc(Br)ccc12`, 2.12.
Same read-out and setting: as for `COc1ccc2c(c1)oc(=O)c1c(C)onc12`, the figure is 1.62; as for `OCc1c(C(F)(F)F)coc1-c1ccc2ccccc2c1O`, 1.41.
`COc1ccc2c(c1)oc(=O)c1c(C)n[nH]c12`: the Activity in [1] worked out at 4.29; in series [5], 30 g. Further, the cytotoxic concentration (CC50) in series [2] is greater than 100 µM. Also, the outcome in the series with 3T3-L1 [3], in the series filed under Mus musculus [12], in the series listed under Mus musculus [13], with Mus musculus [15], with Mus musculus [16] and in the series with Mus musculus [17] was Active. For the same compound, the result in the series on Mus musculus [18] was Active. In addition, the inhibition entry in the series on Mus musculus [6], in the series with Mus musculus [7], in the series on Mus musculus [8], in the series filed under Mus musculus [9], with Mus musculus [10] and in the series filed under Mus musculus [11] was “Active” in each case. Moreover, the result in the series on Mus musculus [14] was inactive.
Regarding `O=c1oc2c3ccccc3ccc2c2[nH]nc(C(F)(F)F)c12`, the Activity in [1] is given as 1.62.
Still for that read-out and setting: the result for `Cc1n[nH]c2c1c(=O)oc1c3ccccc3ccc21` reads 1.84; that for `COc1cccc2oc(=O)c3c(C)n[nH]c3c12`, 0.98.
Same read-out and setting: as for `COc1ccc2c3c(c(=O)oc2c1)C(O)(C(F)(F)F)CO3` (centres undefined), the figure is 1.39.
With `COc1ccc(-c2n[nH]c(C)c2C(=O)O)c(O)c1`, the Activity in [1] came to 1.07.
Regarding `Cc1n[nH]c2c1c(=O)oc1cc(F)ccc12`, the Activity in series [1] is on record as 1.46.
Same read-out and setting: as for `Cc1coc2c1c(=O)oc1cc(Br)ccc12`, the figure is 1.28; as for `COc1ccc2c(c1)oc(=O)c1c(C(F)(F)F)n[nH]c12`, 1.55.
For the compound `O=c1oc2c3ccccc3ccc2c2occ(C(F)(F)F)c12`, the Activity in [1] stood at 1.44.
Same read-out and setting: as for `O=c1oc2c(ccc3ccccc32)c2c1C(O)(C(F)(F)F)CO2` (centres undefined), the figure is 2.19; as for `O=c1oc2c3ccccc3ccc2c2occ(C3CC3)c12`, 2.92.
Turning to `C[C@@H]1c2c(c3ccc4ccccc4c3oc2=O)O[C@@H]1C`, the Activity in [1] was 2.1; in [5], 30.5 g. Further, the inhibition result with Mus musculus [6], in the series on Mus musculus [7], in the series on Mus musculus [8], in the series filed under Mus musculus [9], with Mus musculus [10] and in the series listed under Mus musculus [11] was “Active” throughout. The outcome in the series listed under Mus musculus [12], in the series listed under Mus musculus [13] and with Mus musculus [17] was Active. For the same compound, the result in the series on Mus musculus [14] and in the series on Mus musculus [15] was inactive.
Regarding `O=c1oc2cc(Br)ccc2c2c1C(O)(C(F)(F)F)CO2` (centres undefined), in [1], the Activity is 1.08.
Still for that read-out and setting: the result for `O=c1oc2cc(O)ccc2c2c1C(O)(C(F)(F)F)CO2` (centres undefined) reads 0.99.
Same read-out and setting: the result for `Cn1ncc2c3ccc4ccccc4c3oc(=O)c21` reads 1.44.
With `O=c1oc2cc(Br)ccc2c2[nH]nc(C(F)(F)F)c12`, the Activity in series [1] is 7.31; in the series with 3T3-L1 [19] it was “Toxic”.
Turning to `O=c1oc2c3ccccc3ccc2c2occ(CO)c12`, the Activity in series [1] is 1.39.

Broadly, the CC50 is the concentration at which the toxic effect on the cells reaches its halfway point.
